US8058306B2, “Phenyl pyrrole aminoguanidine derivatives” (Action Pharma A/S, priority 2006, dated 2011)
Values joined by “and” are separate entries in the source; they are usually repeats but may differ in a detail not shown here. Equal entries are not always repeated. “Also recorded” adds a separate entry of the source. Where two headings read alike, the source gives them in different places.

Assay: Plasma kinetics in rat following intravenous and oral administration;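 as to AUC0-∞: parameter is AUC from zero to infinity in ng·h/mL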
Type: in vivo, Sprague Dawley rats
Description: This study determined the intravenous pharmacokinetics and oral bioavailability of compound 1 of the invention (see FIG. 1A, structure no. 1), compound 2 of the invention (see FIG. 1D, structure no. 19) and compound 3 of the invention (see FIG. 1I, structure no. 53) following administration to Sprague Dawley rats at a dose level of 10 mg/kg.
Six groups of 3 male rats received either a single intravenous or single oral administration of compound 1, 2 or 3 of the invention at a dose level of 10 mg/kg. Blood samples were obtained at various times after dosing. Plasma samples were analysed for unchanged test item using a suitable LC-MS/MS method. Pharmacokinetic parameters were estimated from individual plasma concentrations.
Eighteen male rats each received either a single intravenous or a single oral administration of either compound 1, 2 or 3 at a dose level of 10 mg/kg. The formulation was orally administered to each animal by gastric gavage and intravenously administered to each animal via a tail vein. The dose was administered at a dose volume of 5 mL/kg. The formulations were administered to each animal according to the details in the following table:
Blood samples (ca 0.3 mL) were removed from the femoral vein of each animal into tubes containing lithium heparin as anticoagulant.
Blood samples were collected from 3 rats at the following times after dose administration: • 3, 6, 15, 45 min and 1.5, 2.5, 4, 6, 8, 24 h post dose. Oral Administration
Blood samples were collected from 3 rats at the following times after dose administration: • 5, 15, 45 min and 1.5, 2.5, 4, 6, 8, 24 h post dose. Processing of Blood Samples
Pharmacokinetic parameters of compound 1, 2 and 3 were derived by non-compartmental analysis using WinNonLin Pro version 5.0.1 (Pharsight 2005). The following parameters were derived, where appropriate, from the individual plasma concentration versus time profiles:
• F % The absolute oral bioavailability calculated as [AUC0-t (oral)*Dose(iv)/AUC0-t (iv)*Dose (oral)]*100 based on mean values derived after oral and intravenous administration Consideration was given to the estimation of λz and corresponding t1/2 values. Three or more points are required within the terminal phase for λz and t1/2 to be estimated. The following additional variables were tabulated to aid identification of potentially unreliable estimates of t1/2 and AUC:
Pharmacokinetic parameters were reported as geometric mean except Tmax which was reported as the median. Geometric coefficient of variation was calculated as: […]
Actual sampling times were used for all calculations of pharmacokinetic parameters. Plasma concentrations that were below the limit of quantification were taken as zero for the pharmacokinetic analysis.

[1] = intravenous 10 mg/kg, male rats, individual animals, acetate, 10 mg/kg
[2] = male, Sprague Dawley, rat, plasma, iv, 10 mg/kg, single intravenous 10 mg/kg, male rats, individual animals, read-out: Sample Concentration in plasma
[3] = male, Sprague Dawley, rat, plasma, iv, 10 mg/kg, single intravenous 10 mg/kg, male rats, mean of 3, read-out: Mean Concentration in plasma

bioavailability (Sprague Dawley, rat, plasma, 10 mg/kg oral vs intravenous, male rats, from mean AUC0-t, read-out: Mean absolute oral bioavailability): 3.2%
Between-animal variability in systemic exposure, coefficient of variation (CV) of AUC0-t (intravenous 10 mg/kg, male rats): less than 30%
AUC0-∞ [1]: 1868 ng·h/mL and 2468 ng·h/mL
AUC(0-t) [1]: 1701 ng·h/mL and 2445 ng·h/mL
C0 [1]: 4747 ng/mL and 2637 ng/mL
CL [1]: 90.45 mL/min/kg and 68.88 mL/min/kg
MRT [1]: 2.84 h and 4.84 h
Vss [1]: 15.408 L/kg and 20.008 L/kg
t1/2 [1]: 2.718 h and 3.8896 h
Systemic clearance (in words) (intravenous 10 mg/kg, rats): high
systemic plasma clearance (CL) compared with hepatic blood flow (in words) (intravenous 10 mg/kg, hepatic blood flow 3312 mL/h/kg): greater than hepatic blood flow
AUC(0-inf) (male, Sprague Dawley, rat, plasma, iv, 10 mg/kg, intravenous 10 mg/kg, male rats, Arithmetic Mean): 2030 ng·h/mL
AUC(0-t) (male, Sprague Dawley, rat, plasma, iv, 10 mg/kg, intravenous 10 mg/kg, male rats, Arithmetic Mean, read-out: AUC0-t): 1880 ng·h/mL
C0 (male, Sprague Dawley, rat, plasma, iv, 10 mg/kg, intravenous 10 mg/kg, male rats, Arithmetic Mean, read-out: C0): 3470 ng/mL
clearance (male, Sprague Dawley, rat, plasma, iv, 10 mg/kg, intravenous 10 mg/kg, male rats, Arithmetic Mean, read-out: CL (converted)): 85.5 mL/min/kg
MRT (male, Sprague Dawley, rat, plasma, iv, 10 mg/kg, intravenous 10 mg/kg, male rats, Arithmetic Mean, read-out: MRT): 3.74 h
Vd (male, Sprague Dawley, rat, plasma, iv, 10 mg/kg, intravenous 10 mg/kg, male rats, Arithmetic Mean, read-out: Vss): 18.7 L/kg
half-life (male, Sprague Dawley, rat, plasma, iv, 10 mg/kg, intravenous 10 mg/kg, male rats, Arithmetic Mean, read-out: t1/2 (converted)): 3.29 h
AUC(0-inf) (male, Sprague Dawley, rat, plasma, iv, 10 mg/kg, intravenous 10 mg/kg, male rats, Geometric mean): 2010 ng·h/mL
AUC(0-t) (male, Sprague Dawley, rat, plasma, iv, 10 mg/kg, intravenous 10 mg/kg, male rats, Geometric mean, read-out: AUC0-t): 1840 ng·h/mL
C0 (male, Sprague Dawley, rat, plasma, iv, 10 mg/kg, intravenous 10 mg/kg, male rats, Geometric mean, read-out: C0): 3360 ng/mL
clearance (male, Sprague Dawley, rat, plasma, iv, 10 mg/kg, intravenous 10 mg/kg, male rats, Geometric mean, read-out: CL (systemic plasma clearance) (converted)): 84.6 mL/min/kg
MRT (male, Sprague Dawley, rat, plasma, iv, 10 mg/kg, intravenous 10 mg/kg, male rats, Geometric mean, read-out: MRT): 3.65 h
Vd (male, Sprague Dawley, rat, plasma, iv, 10 mg/kg, intravenous 10 mg/kg, male rats, Geometric mean, read-out: Vss (mean apparent volume of distribution)): 18.5 L/kg
half-life (male, Sprague Dawley, rat, plasma, iv, 10 mg/kg, intravenous 10 mg/kg, male rats, Geometric mean, read-out: t1/2 (mean apparent terminal half-life) (converted)): 3.25 h
AUC(0-inf) (male, Sprague Dawley, rat, plasma, iv, 10 mg/kg, intravenous 10 mg/kg, male rats, Median): 1870 ng·h/mL
AUC(0-t) (male, Sprague Dawley, rat, plasma, iv, 10 mg/kg, intravenous 10 mg/kg, male rats, Median, read-out: AUC0-t): 1700 ng·h/mL
C0 (male, Sprague Dawley, rat, plasma, iv, 10 mg/kg, intravenous 10 mg/kg, male rats, Median, read-out: C0): 3020 ng/mL
clearance (male, Sprague Dawley, rat, plasma, iv, 10 mg/kg, intravenous 10 mg/kg, male rats, Median, read-out: CL (converted)): 90.5 mL/min/kg
MRT (male, Sprague Dawley, rat, plasma, iv, 10 mg/kg, intravenous 10 mg/kg, male rats, Median, read-out: MRT): 3.53 h
Vd (male, Sprague Dawley, rat, plasma, iv, 10 mg/kg, intravenous 10 mg/kg, male rats, Median, read-out: Vss): 20 L/kg
half-life (male, Sprague Dawley, rat, plasma, iv, 10 mg/kg, intravenous 10 mg/kg, male rats, Median, read-out: t1/2 (converted)): 3.25 h
AUC(0-inf) (male, Sprague Dawley, rat, plasma, iv, 10 mg/kg, intravenous 10 mg/kg, male rats, individual animals): 1750 ng·h/mL
AUC(0-t) (male, Sprague Dawley, rat, plasma, iv, 10 mg/kg, intravenous 10 mg/kg, male rats, individual animals, read-out: AUC0-t): 1500 ng·h/mL
C0 (male, Sprague Dawley, rat, plasma, iv, 10 mg/kg, intravenous 10 mg/kg, male rats, individual animals, read-out: C0): 3020 ng/mL
clearance (male, Sprague Dawley, rat, plasma, iv, 10 mg/kg, intravenous 10 mg/kg, male rats, individual animals, read-out: CL (converted)): 97.1 mL/min/kg
MRT (male, Sprague Dawley, rat, plasma, iv, 10 mg/kg, intravenous 10 mg/kg, male rats, individual animals, read-out: MRT): 3.53 h
Vd (male, Sprague Dawley, rat, plasma, iv, 10 mg/kg, intravenous 10 mg/kg, male rats, individual animals, read-out: Vss): 20.6 L/kg
half-life (male, Sprague Dawley, rat, plasma, iv, 10 mg/kg, intravenous 10 mg/kg, male rats, individual animals, read-out: t1/2 (converted)): 3.25 h
concentration at 0.05 h (male, Sprague Dawley, rat, plasma, iv, 10 mg/kg, single intravenous 10 mg/kg, male rats, 0.05 h (3 min), mean of 3, read-out: Mean Concentration in plasma): 2350 ng/mL
concentration at 0.05 h (male, Sprague Dawley, rat, plasma, iv, 10 mg/kg, single intravenous 10 mg/kg, male rats, 0.05 h, individual animals, read-out: Sample Concentration in plasma): 1640 ng/mL
concentration at 0.1 h [2]: 1590 ng/mL
concentration at 0.1 h [3]: 1340 ng/mL
concentration at 0.25 h [2]: 847 ng/mL
concentration at 0.25 h [3]: 724 ng/mL
concentration at 0.75 h [2]: 264 ng/mL
concentration at 0.75 h [3]: 278 ng/mL
concentration at 1.5 h [2]: 250 ng/mL
concentration at 1.5 h [3]: 217 ng/mL
concentration at 2.5 h [2]: 195 ng/mL
concentration at 2.5 h [3]: 191 ng/mL
concentration at 4 h [2]: 122 ng/mL
concentration at 4 h [3]: 132 ng/mL
concentration at 6 h [2]: 83.9 ng/mL
concentration at 6 h [3]: 86 ng/mL
concentration at 8 h (male, Sprague Dawley, rat, plasma, iv, 10 mg/kg, single intravenous 10 mg/kg, male rats, 8 h, mean, read-out: Mean Concentration in plasma): 65.1 ng/mL
SMILES: N=C(N)NN=CC=Cc1cccn1-c1ccccc1[N+](=O)[O-] [Compound 2, [1-(2-nitrophenyl)-1H-pyrrol-2-yl-allylideneamino]guanidinium acetate]
volume of distribution compared with total body water (in words) (intravenous 10 mg/kg, rats, total body water 668 mL/kg, acetate, 10 mg/kg): exceeded the total body water; also recorded: markedly greater than that of the total body water
